# Measurements as given in article PMC3462775 (PLoS ONE, 2012).
# Bridge positions count the residues as written; N and C are the ends. Square brackets hold non-standard residues; d marks the D form. Peptide text beside a SMILES is read from it. I, II: the chains in the order shown. βAla = NCCC(=O)O
# System: Enterobacteriaceae
# Assay: MIC comparison M33-D vs M33-L, Enterobacteriaceae
# Type: cell-based
# Procedure: MICs were determined using a standard microdilution assay as recommended by the Clinical and Laboratory Standards Institute. Assays were performed in triplicate using cation-supplemented Mueller-Hinton (MH) broth (Becton Dickinson, Franklin Lakes, NJ, USA) and a bacterial inoculum of 5x10^4 CFU/well, in a final volume of 100 µl. The tested concentrations ranged from 0.1 µM to 24 µM for both peptides. Results were recorded after 18–20 h of incubation at 37°C.
compound,measurement,value
"CC[C@@H](C)[C@@H](NC(=O)[C@@H](CCCCN)NC(=O)[C@H](N)CCCCN)C(=O)N[C@H](CCCNC(=N)N)C(=O)N[C@@H](C(=O)N[C@H](CCCNC(=N)N)C(=O)N[C@H](CC(C)C)C(=O)N[C@H](CO)C(=O)N[C@H](C)C(=O)NCCCC[C@H](NC(=O)[C@@H](C)NC(=O)[C@@H](CO)NC(=O)[C@@H](CC(C)C)NC(=O)[C@@H](CCCNC(=N)N)NC(=O)[C@H](NC(=O)[C@@H](CCCNC(=N)N)NC(=O)[C@H](NC(=O)[C@@H](CCCCN)NC(=O)[C@H](N)CCCCN)[C@H](C)CC)C(C)C)C(=O)NCCCC[C@H](NC(=O)[C@H](CCCCNC(=O)[C@@H](C)NC(=O)[C@@H](CO)NC(=O)[C@@H](CC(C)C)NC(=O)[C@@H](CCCNC(=N)N)NC(=O)[C@H](NC(=O)[C@@H](CCCNC(=N)N)NC(=O)[C@H](NC(=O)[C@@H](CCCCN)NC(=O)[C@H](N)CCCCN)[C@H](C)CC)C(C)C)NC(=O)[C@@H](C)NC(=O)[C@@H](CO)NC(=O)[C@@H](CC(C)C)NC(=O)[C@@H](CCCNC(=N)N)NC(=O)[C@H](NC(=O)[C@@H](CCCNC(=N)N)NC(=O)[C@H](NC(=O)[C@@H](CCCCN)NC(=O)[C@H](N)CCCCN)[C@H](C)CC)C(C)C)C(=O)NCCC(=O)O)C(C)C [M33-D] (I: H-[dK][dK][dI][dR][dV][dR][dL][dS][dA]KK[βAla]-OH / II: H-[dK][dK][dI][dR][dV][dR][dL][dS][dA]K / III: H-[dK][dK][dI][dR][dV][dR][dL][dS][dA] / IV: H-[dK][dK][dI][dR][dV][dR][dL][dS][dA]; amide I:10-IV:C, I:11-II:C, II:10-III:C; N-terminus assumed)",fold lower activity (MIC) than M33-L,2–4 fold
